Test results published in patent US20150253330A1, “PRE-SELECTION OF SUBJECTS FOR THERAPEUTIC TREATMENT WITH AN HSP90 INHIBITOR BASED ON HYPOXIC STATUS” (Synta Pharmaceuticals Corp., priority 2012, published 2015).
Read-outs that look alike come from different tables or passages of the source.

Experiments:
HIF-1α and VEGF = assay: Western blot of HIF-1α and VEGF in pancreatic cancer cell lines; assay type: cell-based; conditions: 50 nM, 24 h
Protocol: It's postulated that functional inhibition of Hsp90 by ganetespib can inhibit angiogenesis and growth in vitro and in vivo models of pancreatic cancer. PANC-1 and HPAC cell lines were treated with vehicle or G (50 nM) for 24 h and lysates were analyzed by Western blot. Egg CAM and matrigel plug assays were performed to quantify the effects of ganetespib on angiogenesis. Efficacy of ganetespib (100 mg/kg) was assessed in mice bearing HPAC and ASPC-1 xenograft.
Primary antibodies specific to Hsp90, HIF-1α, VEGF, Actin and HRP conjugated secondary antibodies (Santa Cruz Biotechnology, California and Cell Signaling Technology, USA) were used for Western blot. Ganetespib was provided by Synta Pharmaceuticals, Lexington, Mass. and Matrigel was purchased from BD Biosciences.
Cells were harvested at the end of treatment and lysed in the RIPA protein extraction buffer (Sigma-Aldrich, Saint Louis, Mo., USA) containing the protease inhibitor cocktail. Equal amounts of protein fractions of lysates were resolved over SDS-PAGE and transferred on to PVDF membrane. Membranes were incubated with primary antibodies followed by HRP-conjugated secondary antibodies. Bound antibodies were visualized using enhanced chemiluminescence. To confirm equal loading, membranes were verified and re-probed with an antibody specific for the housekeeping gene, anti-β-actin.

[1] = test system: AGS (wt-p53 and mut-KRAS); assay: 72 hr viability by CTG, gastric cancer cells; assay type: cell-based; conditions: viability by CTG (upper)
Protocol: (§1) Many of the oncoproteins associated with gastric cancer and Hsp90 client proteins including HER2, MET, RAS and the FGFR family. Ganetespib was evaluated for its effect on the growth of AGS (wt-p53 and mut-KRAS) and MKN45 (wt-p53, wt-KRAS, MET amplified) gastric cancer cells.

[2] = test system: MKN45 (wt-p53, wt-KRAS, MET amplified); assay: 72 hr viability by CTG, gastric cancer cells; assay type: cell-based; conditions: Homo sapiens, MKN-45, viability by CTG (upper)
Protocol: as §1

A549 NSCLC cells = assay: Mouse xenograft tumor model, ganetespib and BEZ235 (Example 9); assay type: in vivo, mice; conditions: ganetespib 50 mg/kg weekly i.v.; BEZ235 10 mg/kg 5 times a week p.o.; particularly at later time points; FIG. 8
Source text: Female immunodeficient CD-1 (nude) mice (Charles River Laboratories, Wilmington, Mass.) were maintained in a pathogen-free environment, and all in vivo procedures were approved by the Synta Pharmaceuticals Corp. Institutional Animal Care and Use Committee. A549 NSCLC cells (7.5×10^6) were subcutaneously implanted into the animals. Mice bearing established tumors (100-200 mm^3) were randomized into treatment groups of 8 and i.v. dosed via the tail vein with either vehicle, ganetespib formulated in 10/18 DRD (10% DMSO, 18% Cremophor RH 40, 3.6% dextrose, 68.4% water) or p.o. dosed with BEZ235 formulated in PEG300/NMP (90% PEG300, 10% N-Methylpyrrolidone). Animals were treated with ganetespib at 50 mg/kg weekly or BEZ235 at 10 mg/kg 5 times a week, either alone or in combination. Tumor growth inhibition was determined as described previously. See Proia et al, PLoS One. 2011; 6(4):e18552.

RCC = conditions: cited from earlier work
colon cancer first line = conditions: cited from earlier work
colon cancer second line = conditions: cited from earlier work
[3] = test system: Chk1 and Chk2 phosphorylation; assay: Western blot of Chk1 and Chk2 phosphorylation after bleomycin in Detroit 562 cells; assay type: cell-based; conditions: Detroit 562, bleomycin (5 μM)
Protocol: Protein expression was measured at the indicated time points after bleomycin treatment.
Cell extracts from Detroit 562 head and neck cancer cells were treated with 100 nM of ganetespib 24 hours prior to receiving the DNA damaging agent bleomycin (5 μM). Protein expression was measured at the indicated time points after bleomycin treatment.

pancreatic cancer = conditions: cited from earlier work
prostate cancer = conditions: cited from earlier work
melanoma = conditions: cited from earlier work

3-2,4-dihydroxy-5-isopropyl-phenyl)-4-(1-methyl-indol-5-yl)-5-hydroxy-[1,2,4]triazole [ganetespib]
HIF-1α and VEGF protein levels (HIF-1α and VEGF): significant reduction

C=CCNC1=C2C[C@@H](C)C[C@H](OC)[C@H](O)[C@@H](C)/C=C(\C)[C@H](OC(N)=O)[C@@H](OC)/C=C\C=C(/C)C(=O)NC(=CC1=O)C2=O [17-AAG, 17-allyamino-geldanamycin]
IC50 [1]: 50 nM | IC50 [2]: 1 nM

Cn1c(=O)n(-c2ccc(C(C)(C)C#N)cc2)c2c3cc(-c4cnc5ccccc5c4)ccc3ncc21 [BEZ235, reference compound]
Average tumor volume as compared to vehicle (A549 NSCLC cells): significantly reduced

CC(=O)O[C@@]12CO[C@@H]1C[C@H](O)[C@@]1(C)C(=O)[C@H](O)C3=C(C)[C@@H](OC(=O)[C@H](O)[C@@H](NC(=O)OC(C)(C)C)c4ccccc4)C[C@@](O)([C@@H](OC(=O)c4ccccc4)[C@H]21)C3(C)C [Docetaxel]
IC50 [1]: 0.3 nM | IC50 [2]: 0.1 nM

CO[C@H]1C[C@@H]2CC[C@@H](C)[C@@](O)(O2)C(=O)C(=O)N2CCCC[C@H]2C(=O)O[C@H]([C@H](C)C[C@@H]2CC[C@@H](OC(=O)C(C)(CO)CO)[C@H](OC)C2)CC(=O)[C@H](C)/C=C(\C)[C@@H](O)[C@@H](OC)C(=O)[C@H](C)C[C@H](C)/C=C/C=C/C=C/1C [temsirolimus]
OS HR (RCC; high LDH, P=0.002): 0.56 | OS HR (RCC; normal LDH, P=0.51): 0.90

Clc1ccc(Nc2nnc(Cc3ccncc3)c3ccccc23)cc1 [vatalanib]
PFS HR (colon cancer first line; LDH group not given, P=0.188): 0.88 | PFS HR (colon cancer first line; high LDH, P=0.009): 0.67 | PFS HR (colon cancer second line; LDH group not given, P=0.01): 0.83 | PFS HR (colon cancer second line; high LDH, P<0.001): 0.63

Bleomycin [reference compound]
Chk1 and Chk2 phosphorylation [3]: increased both Chk1 and Chk2 phosphorylation

bevacizumab: anti-cancer agent cited from large randomized phase 2 and phase 3 studies
OS HR (pancreatic cancer; high LDH, 95% CI 0.43-0.82): 0.59 | HR (pancreatic cancer; normal LDH, 95% CI 0.78-1.24): 0.98 | OS HR (prostate cancer; high LDH, P=0.029): 0.80 | OS HR (prostate cancer; normal LDH, P=0.87): 1.02 | OS HR (melanoma; high LDH, 95% CI 0.32-0.88): 0.53 | OS HR (melanoma; normal LDH, 95% CI 0.73-1.25): 1.25
